Data from patent US7297797B2, “Pyrrolines” (Bayer CropScience AG, priority 2002, dated 2007).
Where two headings read alike, the source gives them in different places.

Legend:
[1] = log P determination by HPLC on reversed-phase column (EEC Directive 79/831 Annex V.A8); format: physicochemical
Description: The log P values given in the preparation examples and tables above are determined in accordance with EEC Directive 79/831 Annex V.A8 by HPLC (High Performance Liquid Chromatography) on a reversed-phase column (C 18). Temperature: 43° C. In the acidic range, determination is carried out at pH 2.3 using the mobile phases 0.1% aqueous phosphoric acid and acetonitrile; linear gradient from 10% acetonitrile to 90% acetonitrile (in the tables marked with a)). In the neutral range, determination is carried out at pH 7.5 using the mobile phases 0.01 molar aqueous phosphate buffer solution and acetonitrile; linear gradient from 10% acetonitrile to 90% acetonitrile (in the tables marked with b)). Calibration is carried out using unbranched alkan-2-ones (of 3 to 16 carbon atoms) with known lopP values (determination of the log P values by the retention times using linear interpolation between two successive alkanones).

[2] = system: caterpillars of the cotton bollworm (Heliothis armigera); assay: Heliothis armigera test; format: in vivo; details: Helicoverpa armigera, 168 h; 100 ppm active compound; soybean shoots (Glycine max) dipped; after 7 d; read-out: Kill rate in % after 7 d
Description: (§1) Heliothis armigera Test • Solvent: 7 parts by weight of dimethylformamide • Emulsifier: 2 parts by weight of alkylaryl polyglycol ether To produce a suitable preparation of active compound, 1 part by weight of active compound is mixed with the stated amounts of solvent and emulsifier, and the concentrate is diluted with emulsifier-containing water to the desired concentration. Soybean shoots (Glycine max) are treated by being dipped into the preparation of active compound of the desired concentration and are populated with caterpillars of the cotton bollworm (Heliothis armigera) while the leaves are still moist. After the desired period of time, the kill in % is determined. 100% means that all caterpillars have been killed; 0% means that none of the caterpillars have been killed. In this test, for example, the following compounds of the preparation examples show good activity: […]

[3] = system: larvae of the mustard beetle (Phaedon cochleariae); assay: Phaedon larvae test; format: in vivo; details: 168 h, 100 ppm active compound, cabbage leaves (Brassica oleracea) dipped, after 7 d, read-out: Kill rate in % after 7 d
Description: as §1, with “Phaedon Larvae Test” for “Heliothis armigera Test”, “concentration. Cabbage leaves (Brassica oleracea)” for “concentration. Soybean shoots (Glycine max)”, “with larvae” for “with caterpillars”, “the mustard beetle (Phaedon cochleariae)” for “the cotton bollworm (Heliothis armigera)”, “all beetle larvae” for “all caterpillars”, “the beetle larvae” for “the caterpillars”

[4] = system: caterpillars of the army worm (Spodoptera frugiperda); assay: Spodoptera frugiperda test; format: in vivo; details: 168 h, 100 ppm active compound, cabbage leaves (Brassica oleracea) dipped, after 7 d, read-out: Kill rate in % after 7 d
Description: as §1, with “Spodoptera frugiperda” for “Heliothis armigera”, “Cabbage leaves (Brassica oleracea)” for “Soybean shoots (Glycine max)”, “army worm (Spodoptera frugiperda)” for “cotton bollworm (Heliothis armigera)”

[5] = system: greenhouse red spider mite (Tetranychus urticae); assay: Tetranychus test (OP-resistant/dip treatment); format: in vivo; details: 168 h, 100 ppm active compound, infested bean plants (Phaseolus vulgaris) dipped, OP-resistant, after 7 d, read-out: Kill rate in % after 7 d
Description: Tetranychus Test (OP-Resistant/Dip Treatment)
• Solvent: 7 parts by weight of dimethylformamide • Emulsifier: 2 parts by weight of alkylaryl polyglycol ether
To produce a suitable preparation of active compound, 1 part by weight of active compound is mixed with the stated amounts of solvent and emulsifier, and the concentrate is diluted with emulsifier-containing water to the desired concentration.
Bean plants (Phaseolus vulgaris) which are heavily infested by all stages of the greenhouse red spider mite (Tetranychus urticae) are treated by being dipped into a preparation of active compound of the desired concentration.
After the desired period of time, the activity in % is determined. 100% means that all spider mites have been killed; 0% means that none of the spider mites have been killed.
In this test, for example, the following compounds of the preparation examples show good efficacy: […]

[6] = system: caterpillars of the diamondback moth (Plutella xylostella); assay: Plutella test; format: in vivo; details: 100 ppm active compound, cabbage leaves (Brassica oleracea) dipped
Description: as §1, with “Plutella” for “Heliothis armigera”, “Cabbage leaves (Brassica oleracea)” for “Soybean shoots (Glycine max)”, “diamondback moth (Plutella xylostella)” for “cotton bollworm (Heliothis armigera)”

[7] = system: caterpillars of the army worm (Spodoptera exigua); assay: Spodoptera exigua test; format: in vivo; details: 100 ppm active compound, cabbage leaves (Brassica oleracea) dipped
Description: as §1, with “Spodoptera exigua” for “Heliothis armigera”, “Cabbage leaves (Brassica oleracea)” for “Soybean shoots (Glycine max)”, “army worm (Spodoptera exigua)” for “cotton bollworm (Heliothis armigera)”

[8] = reversed-phase C18 HPLC column; acidic range, pH 2.3, 0.1% aqueous phosphoric acid/acetonitrile, 43° C.; marked a) in tables, read-out: log P (pH 2.3)
[9] = reversed-phase C18 HPLC column; neutral range, pH 7.5, 0.01 molar aqueous phosphate buffer/acetonitrile, 43° C.; marked b) in tables, read-out: log P (pH 7.5)

| chromatographic logP [1, 8] | chromatographic logP [1, 9] | Structure (SMILES) | pest or weed control at 100 ppm [2] | pest or weed control at 100 ppm [3] | pest or weed control at 100 ppm [4] | pest or weed control at 100 ppm [5] | Kill rate in % after 7 d [6] | Kill rate in after 7 d [7] |
| --- | --- | --- | --- | --- | --- | --- | --- | --- |
| 3.33 |  | CC(=O)NC(CCC(=O)c1ccccc1C)c1ccc(Br)cc1 (centres unmarked) [N-[1-(4-bromophenyl)-4-(2-methylphenyl)-4-oxobutyl]acetamnide] |  |  |  |  |  |  |
| 4.18 |  | Cc1ccccc1C1=NC(c2ccc(-c3ccc(-c4nc(C(C)(C)C)no4)cc3)cc2)CC1 (centres unmarked) [Example 12] | 100% | 100% | 100% | 98% |  |  |
| 3.02 | 4.03 | N#Cc1cnn(-c2ccc(-c3ccc(C4CCC(c5c(F)cccc5F)=N4)cc3)cc2)c1 (centres unmarked) [Example 18] |  | 100% | 100% | 90% |  |  |
| 4.18 |  | O=C(/C=C/c1ccc(Br)cc1F)c1c(F)cccc1F [(2E)-3-(4-bromo-2-fluorophenyl)-1-(2,6-difluoro-phenyl)-2-propen-1-one] |  |  |  |  |  |  |
| 3.99 |  | Cc1ccccc1C1=NC(c2ccc(-c3ccc(-c4noc(C(C)(C)C)n4)cc3)cc2)CC1 (centres unmarked) [Example 11] | 100% | 100% | 100% | 98% |  |  |
| 1.82 | 4.48 | Cc1ccccc1C1=NC(c2ccc(Br)cc2)CC1 (centres unmarked) [2-(4-bromophenyl)-5-(2-methylphenyl)-3,4-dihydro-2H-pyrrole] |  |  |  |  |  |  |
| 4.35 |  | COc1ccc(-c2ccc(-c3ccc(C4CCC(c5c(F)cccc5F)=N4)cc3)cc2)s1 (centres unmarked) [Example 2, 5-(2,6-difluorophenyl)-2-[4′-(5-methoxy-2-thienyl)-1,1′-biphenyl-4-yl]-3,4-dihydro-2H-pyrrole] | 100% | 100% | 100% |  |  |  |
| 5.79 | 6.06 | CC(C)(C)c1noc(-c2ccc(-c3ccc(C4CCC(c5c(F)cccc5F)=N4)c(F)c3)cc2)n1 (centres unmarked) [Example 5, 3-tert-butyl-5-{4′-[5-(2,6-difluorophenyl)-3,4-dihydro-2H-pyrrol-2-yl]-3′-fluoro-1,1′-biphenyl-4-yl}-1,2,4-oxadiazole] | 100% | 100% | 100% | 98% | 100% | 100% |
| 3.35 | 4.68 | Cc1nc(-c2ccc(-c3ccc(C4CCC(c5c(F)cccc5F)=N4)cc3)cc2)cs1 (centres unmarked) [Example 22] | 100% |  | 100% | 90% | 100% |  |
| 2.74 |  | CC(=O)NC(CCC(=O)c1c(F)cccc1F)c1ccc(Br)cc1F (centres unmarked) [N-[1-(4-bromo-2-fluorophenyl)-4-(2,6-difluorophenyl)-4-oxobutyl]acetamide] |  |  |  |  |  |  |
| 3.32 |  | Cc1ccccc1C1=NC(c2ccc(-c3ccc(-c4noc(C(F)(F)F)n4)cc3)cc2)CC1 (centres unmarked) [Example 4, 3-{4′-[5-(2-methylphenyl)-3,4-dihydro-2H-pyrrol-2-yl]-1,1′-biphenyl-4-yl}-5-(trifluoromethyl)-1,2,4-oxadiazole] | 100% | 100% | 100% | 95% |  |  |
| 4.88 | 5.84 | CCOc1ccc(-c2ccc(-c3ccc(C4CCC(c5c(F)cccc5F)=N4)cc3)cc2)s1 (centres unmarked) [Example 1, 5-(2,6-difluorophenyl)-2-[4′-(5-ethoxy-2-thienyl)-1,1′-biphenyl-4-yl]-3,4-dihydro-2H-pyrrole] | 100% | 100% | 100% | 95% | 100% |  |
| 5.2 |  | CC(C)Oc1ccc(-c2ccc(-c3ccc(C4CCC(c5c(F)cccc5F)=N4)cc3)cc2)s1 (centres unmarked) [Example 3, 5-(2,6-difluorophenyl)-2-[4′-(5-isopropoxy-2-thienyl)-1,1′-biphenyl-4-yl]-3,4-dihydro-2H-pyrrole] | 100% | 100% | 100% |  |  |  |
| 2.25 | 4.98 | Cc1ccccc1C1=NC(c2ccc(B3OC(C)(C)C(C)(C)O3)cc2)CC1 (centres unmarked) [II-1, 5-(2-methylphenyl)-2-[4-(4,4,5,5-tetramethyl-1,3,2-dioxaborolan-2-yl)phenyl]-3,4-dihydro-2H-pyrrole] |  |  |  |  |  |  |
| 4.31 |  | O=C(c1c(F)cccc1F)C1CC1c1ccc(Br)cc1F (centres unmarked) [[2-(4-bromo-2-fluorophenyl)cyclopropyl](2,6-difluorophenyl)methanone] |  |  |  |  |  |  |
| 5.18 |  | CCOC(=O)[C@H]1CC(c2c(F)cccc2F)=N[C@H]1c1ccc(-c2ccc(-c3noc(C(F)(F)F)n3)cc2)cc1 (racemic) [Example 8] | 100% | 100% | 100% | 95% |  |  |
| 4.88 |  | CC1(C)OB(c2ccc(C3CCC(c4c(F)cccc4F)=N3)c(F)c2)OC1(C)C (centres unmarked) [II-2, 5-(2,6-difluorophenyl)-2-[2-fluoro-4-(4,4,5,5-tetramethyl-1,3,2-dioxaborolan-2-yl)phenyl]-3,4-dihydro-2H-pyrrole] |  |  |  |  |  |  |
| 5.29 |  | CCOC(=O)[C@H]1CC(c2c(F)cccc2F)=N[C@H]1c1ccc(-c2ccc(-c3noc(C(C)(C)C)n3)cc2)cc1 (racemic) [Example 9] | 100% | 100% | 100% |  |  |  |
| 5.39 |  | CCOC(=O)[C@H]1CC(c2c(F)cccc2F)=N[C@H]1c1ccc(-c2ccc(-c3nc(C(C)(C)C)no3)cc2)cc1 (racemic) [Example 10] | 100% | 100% | 100% |  |  |  |
